Experimental data published in the C3SDB collision cross section collection.
Counter-ions that a name gives are not always drawn.

Conditions: instrument: DT, single field, calibrated with Agilent tune mix (Agilent)

SMILES | collision cross section (N2) ([M-H]-) | collision cross section (N2) ([M+H]+) | also measured
O=C(O)C(COP(=O)(O)O)OP(=O)(O)O [2,3-Diphospho-D-glyceric acid] |  |  | collision cross section (N2) ([M+Na]+): 152.3 Å²
O=P(O)(O)OC[C@H]1O[C@@H](O)C[C@@H]1O [2-Deoxyribose 5-phosphate] | 132.47 Å² |  | 
CNc1nc(=O)c2ncn([C@@H]3O[C@H](CO)[C@@H](O)[C@H]3O)c2[nH]1 [2-Methylguanosine] |  |  | collision cross section (N2) ([M+Na-2H]-): 166.02 Å²; collision cross section (N2) ([M+Na]+): 178.4 Å²
O=C(O)CCCC(=O)C(=O)O [2-Oxoadipic acid] |  |  | collision cross section (N2) ([M+Na-2H]-): 129.65 Å²
N[C@@H](Cc1ccc(O)c(O)c1)C(=O)O [3,4-Dihydroxy-L-phenylalanine] | 138.21 Å² | 148.7 Å² | 
O=C(O)Cc1ccc(O)c(O)c1 [3,4-Dihydroxyphenylacetic acid] |  |  | collision cross section (N2) ([M-H2O-H]-): 125.7 Å²
NC(Cc1cc(I)c(Oc2ccc(O)cc2)c(I)c1)C(=O)O (stereo not given) [3,5-Diiodothyronine] | 186.44 Å² | 198.2 Å² | 
CC(CC(=O)O)CC(=O)O [3-Methylglutaric acid] | 122.88 Å² |  | 
Cn1c(=O)[nH]c(=O)c2[nH]c(=O)[nH]c21 [3-Methyluric acid] | 128.86 Å² |  | 
O=C(O)[C@H](O)COP(=O)(O)O [3-Phospho-D-glycerate] |  |  | collision cross section (N2) ([M+Na]+): 139.4 Å²
C[C@]12CC[C@@H](O)C[C@H]1CC[C@@H]1[C@@H]2[C@@H](O)C[C@]2(C)[C@@H](C(=O)CO)CC[C@@H]12 [3alpha,11beta,21-Trihydroxy-5beta-pregnan-20-one] | 187.18 Å² |  | collision cross section (N2) ([M+H-H2O]+): 179.6 Å²
NC(N)=NCCCC(=O)O [4-Guanidinobutyric acid] |  | 129.7 Å² | 
O=C(O)c1ccc([O-])cc1 [4-Hydroxybenzoate] | 119.33 Å² |  | collision cross section (N2) ([M+H-H2O]+): 119 Å²
COc1ccc(CC(=O)O)cc1 [4-Methoxyphenylacetic acid] |  | 137.4 Å² | 
Nc1nc(=O)c2c([nH]1)NCC1CN(c3ccc(C(=O)NC(CCC(=O)O)C(=O)O)cc3)CN21 (stereo not given) [5,10-methylene-THF] | 192.06 Å² |  | 
N[C@@H](Cc1c[nH]c2ccc(O)cc12)C(=O)O [5-Hydroxy-L-tryptophan] | 148.86 Å² |  | collision cross section (N2) ([M+Na]+): 152.2 Å²
O=C(O)c1ccc(=O)[nH]c1 [6-Hydroxynicotinic acid] | 118.52 Å² | 129.5 Å² | 
O=C(O)[C@H](O)[C@@H](O)[C@H](O)[C@H](O)COP(=O)(O)O [6-Phospho-D-gluconate] |  |  | collision cross section (N2) ([M+Na]+): 157.3 Å²
C[C@H](O)[C@H](O)C1=Nc2c([nH]c(N)nc2=O)NC1 [7,8-Dihydrobiopterin] |  | 154.1 Å² | 
Cn1c(=O)[nH]c2[nH]c(=O)[nH]c(=O)c21 [7-Methyluric acid] | 129.35 Å² |  | 
CC1=C(/C=C/C(C)=C\C=C\C(C)=C\C=O)C(C)(C)CCC1 [9-cis-Retinal] |  | 170.1 Å² | 
CC1=C(/C=C/C(C)=C\C=C\C(C)=C\C(=O)O)C(C)(C)CCC1 [9-cis-Retinoic acid] | 200.01 Å² |  | collision cross section (N2) ([M+H-H2O]+): 169.6 Å²
CC12CCC(=O)C=C1CCC1C2CCC2(C)C(C(=O)CO)CCC12 (stereo not given) [11-Deoxycorticosterone] | 184.42 Å² | 186.5 Å² | 
C[C@]12CC[C@H]3[C@@H](CC=C4C[C@@H](O)CC[C@@]43C)[C@@H]1CC[C@@H]2C(=O)CO [21-Hydroxypregnenolone] | 185.89 Å² |  | collision cross section (N2) ([M+H-H2O]+): 178.4 Å²
CC(C)CC[C@@H](O)[C@@H](C)[C@H]1CC[C@H]2[C@@H]3CC=C4C[C@@H](O)CC[C@]4(C)[C@H]3CC[C@]12C [22beta-Hydroxycholesterol] | 217.74 Å² |  | collision cross section (N2) ([M+H-H2O]+): 205.2 Å²
C=C1CC[C@H](O)C/C1=C/C=C1\CCC[C@]2(C)[C@@H]([C@H](C)CCCC(C)(C)O)CC[C@@H]12 [25-hydroxyvitamin D3] | 200.06 Å² |  | 
Nc1ncnc2c1ncn2[C@@H]1O[C@H](COP(=O)(O)OP(=O)(O)OC[C@@H](O)[C@@H](O)[C@@H](O)C=O)[C@@H](O)[C@H]1O [ADP Ribose] |  | 211.4 Å² | 
CC(=O)CC(=O)SCCNC(=O)CCNC(=O)[C@H](O)C(C)(C)COP(=O)(O)OP(=O)(O)OC[C@H]1O[C@@H](n2cnc3c(N)ncnc32)[C@H](O)[C@@H]1OP(=O)(O)O [Acetoacetyl coenzyme A] | 252.94 Å² | 247.8 Å² | 

SMILES | collision cross section (N2) ([M-H]-) | collision cross section (N2) ([M+H]+) | also measured
CC(=O)Oc1cc(C)c(OC(C)=O)c2ccccc12 [Acetomenaphthone] |  |  | collision cross section (N2) ([M+Na]+): 157.2 Å²
CC(=O)OCC[N+](C)(C)C [Acetylcholine] |  | 129.7 Å² | 
Nc1ncnc2c1ncn2[C@@H]1O[C@H](COP(=O)(O)OP(=O)(O)O)[C@@H](O)[C@H]1O [Adenosine 5'-diphosphate] |  | 186.1 Å² | 
Nc1ncnc2c1ncn2[C@@H]1O[C@H](COP(=O)(O)OS(=O)(=O)O)[C@@H](O)[C@H]1O [Adenosine 5'-phosphosulfate] | 180.48 Å² |  | collision cross section (N2) ([M+Na]+): 190.4 Å²
Nc1ccccc1C(=O)O [Anthranilic acid] | 123.99 Å² |  | collision cross section (N2) ([M+H-H2O]+): 118.8 Å²
CCCCCCCCCCCCCCCCCCCC(=O)O [Arachidic acid] | 183.41 Å² |  | 
CCCCC/C=C\C/C=C\C/C=C\C/C=C\CCCC(=O)O [Arachidonic Acid] | 178.94 Å² |  | 
CCCCCCCCCCCCCCCCCCCCCC(=O)O [Behenic acid] | 191.18 Å² |  | 
O=C(O)c1ccccc1 [Benzoic acid] | 121.84 Å² |  | 
O=P(O)(O)O[C@]1(CO)O[C@H](CO)[C@@H](O)[C@@H]1O [Beta-D-Fructose 2-phosphate] | 141.51 Å² |  | collision cross section (N2) ([M+Na]+): 154 Å²
O=P(O)(O)OC[C@H]1O[C@](O)(CO)[C@@H](O)[C@@H]1O [Beta-D-Fructose 6-phosphate] | 141.02 Å² | 149.3 Å² | 
C[N+](C)(C)CC=O [Betaine aldehyde] |  | 117.2 Å² | 
CCCC(=O)SCCNC(=O)CCNC(=O)[C@H](O)C(C)(C)COP(=O)(O)OP(=O)(O)OC[C@H]1O[C@@H](n2cnc3c(N)ncnc32)[C@H](O)[C@@H]1OP(=O)(O)O [Butyryl-CoA] |  | 252.9 Å² | 
CCCC(=O)SCCNC(=O)CCNC(=O)[C@H](O)C(C)(C)COP(=O)(O)OP(=O)(O)OC[C@H]1O[C@@H](n2cnc3c(N)ncnc32)[C@H](O)[C@@H]1OP(=O)(O)O [Butyryl-coenzyme A] | 253.26 Å² |  | 
CC(C)CCC[C@@H](C)[C@H]1CC[C@H]2[C@@H]3CC=C4C[C@@H](OS(=O)(=O)O)CC[C@]4(C)[C@H]3CC[C@]12C [Cholesteryl sulfate] | 237.01 Å² |  | 
CC1=C(CCC(=O)O)c2cc3nc(cc4[nH]c(cc5[nH]c(cc1n2)c(C)c5CCC(=O)O)c(CCC(=O)O)c4C)C(CCC(=O)O)=C3C [Coproporphyrin III] | 271.13 Å² | 257.2 Å² | 
N[C@@H](CS)C(=O)NCC(=O)O [Cysteinylglycine] | 131.77 Å² |  | 
Nc1ccn([C@@H]2O[C@H](COP(=O)(O)O)[C@@H](O)[C@H]2O)c(=O)n1 [Cytidine 5'-monophosphate] |  | 166.3 Å² | 
Nc1ccn([C@@H]2O[C@H](COP(=O)(O)OP(=O)(O)OP(=O)(O)O)[C@@H](O)[C@H]2O)c(=O)n1 [Cytidine triphosphate] | 179.08 Å² |  | 
C[C@@H](N)C(=O)N[C@H](C)C(=O)O [D-Ala-D-Ala] |  |  | collision cross section (N2) ([M+Na]+): 142.8 Å²
C[C@@H](N)C(=O)N[C@H](C)C(=O)O [D-Alanyl-D-alanine] | 134.05 Å² |  | 
OC[C@H]1OC(O)[C@H](O)[C@H](O)[C@@H]1O (stereo partly drawn) [D-Allose] |  |  | collision cross section (N2) ([M+Na]+): 143.1 Å²
O=C(O)[C@@H](O)[C@H](O)[C@H](O)[C@@H](O)C(=O)O [D-Galactarate] | 130.24 Å² |  | collision cross section (N2) ([M+Na]+): 147.3 Å²
O=C1O[C@H](CO)[C@@H](O)[C@H](O)[C@H]1O [D-Glucono-1,5-lactone] | 130.59 Å² |  | 
OC[C@@H](O)[C@@H](O)[C@H](O)[C@H](O)CO [D-Mannitol] |  |  | collision cross section (N2) ([M+Na]+): 141 Å²
O=P(O)(O)OC1O[C@H](CO)[C@@H](O)[C@H](O)[C@@H]1O (stereo partly drawn) [D-Mannose 1-phosphate] | 143.99 Å² |  | collision cross section (N2) ([M+Na]+): 158.3 Å²
O=C(O)[C@H]1CCCN1 [D-Proline] | 122.49 Å² | 125 Å² | 
